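Growth conditions: 96-well plates. Treatment: test compound, 48 hours, 5 concentrations. Analysis: linear interpolation between bracketing concentrations; unreached endpoints set to highest concentration. GI50 = concentration required for 50% inhibition of growth. TGI: total growth inhibition.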
Columns and labels:
Assay in all cases: inhibition of tumour cell growth, NCI panel, 48 h; in the data active = GI50 below about 0.43 µM; inactive = the rest
786-0 renal = tested on: 786-0 renal
A498 renal = tested on: A498 renal
A549 NSCLC = tested on: A549 NSCLC
ACHN renal = tested on: ACHN renal
BT-549 breast = tested on: BT-549 breast
CAKI-1 renal = tested on: CAKI-1 renal
CCRF-CEM leukemia = tested on: CCRF-CEM leukemia
COLO 205 colon = tested on: COLO 205 colon
DU-145 prostate = tested on: DU-145 prostate
EKVX NSCLC = tested on: EKVX NSCLC
HCC-2998 colon = tested on: HCC-2998 colon
HCT-116 colon = tested on: HCT-116 colon
HCT-15 colon = tested on: HCT-15 colon
HL-60(TB) leukemia = tested on: HL-60(TB) leukemia
HOP-62 NSCLC = tested on: HOP-62 NSCLC
HOP-92 NSCLC = tested on: HOP-92 NSCLC
HS 578T breast = tested on: HS 578T breast
HT29 colon = tested on: HT29 colon
IGROV1 ovarian = tested on: IGROV1 ovarian
K-562 leukemia = tested on: K-562 leukemia
KM12 colon = tested on: KM12 colon
LOX IMVI melanoma = tested on: LOX IMVI melanoma
M14 melanoma = tested on: M14 melanoma
MALME-3M melanoma = tested on: MALME-3M melanoma
MCF7 breast = tested on: MCF7 breast
MDA-MB-231 breast = tested on: MDA-MB-231 breast
MDA-MB-435 = tested on: MDA-MB-435
MOLT-4 leukemia = tested on: MOLT-4 leukemia
NCI-H226 lung = tested on: NCI-H226 lung
NCI-H23 lung = tested on: NCI-H23 lung
NCI-H460 lung = tested on: NCI-H460 lung
NCI-H522 lung = tested on: NCI-H522 lung
NCI/ADR-RES ovarian = tested on: NCI/ADR-RES ovarian
OVCAR-3 ovarian = tested on: OVCAR-3 ovarian
OVCAR-4 ovarian = tested on: OVCAR-4 ovarian
OVCAR-5 ovarian = tested on: OVCAR-5 ovarian
OVCAR-8 ovarian = tested on: OVCAR-8 ovarian
PC-3 prostate = tested on: PC-3 prostate
RPMI-8226 leukemia = tested on: RPMI-8226 leukemia
RXF 393 renal = tested on: RXF 393 renal
SF-268 CNS = tested on: SF-268 CNS
SF-295 CNS = tested on: SF-295 CNS
SF-539 CNS = tested on: SF-539 CNS
SK-MEL-2 melanoma = tested on: SK-MEL-2 melanoma
SK-MEL-28 melanoma = tested on: SK-MEL-28 melanoma
SK-MEL-5 melanoma = tested on: SK-MEL-5 melanoma
SK-OV-3 ovarian = tested on: SK-OV-3 ovarian
SN12C renal = tested on: SN12C renal
SNB-19 CNS = tested on: SNB-19 CNS
SNB-75 CNS = tested on: SNB-75 CNS
SR leukemia = tested on: SR leukemia
SW-620 colon = tested on: SW-620 colon
T-47D breast = tested on: T-47D breast
TK-10 renal = tested on: TK-10 renal
U251 CNS = tested on: U251 CNS
UACC-257 melanoma = tested on: UACC-257 melanoma
UACC-62 melanoma = tested on: UACC-62 melanoma
UO-31 renal = tested on: UO-31 renal

NS(=O)(=O)c1ccc(-c2cc3ccncc3cc2OCc2ccccc2)cc1
> 19.3 µM: TGI (HL-60(TB) leukemia) | TGI (SK-OV-3 ovarian)
inactive: GI50 (786-0 renal) > 19.8 µM | GI50 (A498 renal) 5.65 µM | GI50 (A549 NSCLC) 8.59 µM | GI50 (ACHN renal) > 19 µM | GI50 (BT-549 breast) 6.01 µM | GI50 (CAKI-1 renal) > 23.8 µM | GI50 (CCRF-CEM leukemia) > 17.7 µM | GI50 (COLO 205 colon) > 21.2 µM | GI50 (DU-145 prostate) 16.4 µM | GI50 (EKVX NSCLC) > 22.9 µM | GI50 (HCC-2998 colon) > 25 µM | GI50 (HCT-116 colon) > 14.8 µM | GI50 (HCT-15 colon) 13.2 µM | GI50 (HL-60(TB) leukemia) 6.43 µM | GI50 (HOP-62 NSCLC) 6.83 µM | GI50 (HOP-92 NSCLC) 4.94 µM | GI50 (HS 578T breast) 7.04 µM | GI50 (HT29 colon) > 16.4 µM | GI50 (IGROV1 ovarian) > 25 µM | GI50 (K-562 leukemia) > 19.6 µM | GI50 (KM12 colon) > 20.2 µM | GI50 (LOX IMVI melanoma) > 22.6 µM | GI50 (M14 melanoma) > 25 µM | GI50 (MALME-3M melanoma) 22.8 µM | GI50 (MCF7 breast) 14.5 µM | GI50 (MDA-MB-231 breast) 14.6 µM | GI50 (MDA-MB-435) > 25 µM | GI50 (MOLT-4 leukemia) > 13.6 µM | GI50 (NCI-H226 lung) > 19.9 µM | GI50 (NCI-H23 lung) > 25 µM | GI50 (NCI-H460 lung) 9.77 µM | GI50 (NCI-H522 lung) > 17 µM | GI50 (NCI/ADR-RES ovarian) 25 µM | GI50 (OVCAR-3 ovarian) 12.1 µM | GI50 (OVCAR-4 ovarian) > 19.6 µM | GI50 (OVCAR-5 ovarian) > 25 µM | GI50 (OVCAR-8 ovarian) 8.19 µM | GI50 (PC-3 prostate) > 20.5 µM | GI50 (RPMI-8226 leukemia) > 18.2 µM | GI50 (RXF 393 renal) 7.16 µM | GI50 (SF-268 CNS) > 20.1 µM | GI50 (SF-295 CNS) > 18 µM | GI50 (SF-539 CNS) 7.17 µM | GI50 (SK-MEL-2 melanoma) 14.6 µM | GI50 (SK-MEL-28 melanoma) 20.6 µM | GI50 (SK-MEL-5 melanoma) > 25 µM | GI50 (SK-OV-3 ovarian) 11.1 µM | GI50 (SN12C renal) 24.9 µM | GI50 (SNB-19 CNS) > 25 µM | GI50 (SNB-75 CNS) 5.27 µM | GI50 (SR leukemia) 6.58 µM | GI50 (SW-620 colon) > 22.9 µM | GI50 (T-47D breast) > 19.4 µM | GI50 (TK-10 renal) > 23.1 µM | GI50 (U251 CNS) > 21.5 µM | GI50 (UACC-257 melanoma) > 25 µM | GI50 (UACC-62 melanoma) > 23.7 µM | GI50 (UO-31 renal) 14.5 µM
> 23.4 µM: TGI (SR leukemia)
> 25 µM: TGI (786-0 renal) | TGI (A498 renal) | TGI (A549 NSCLC) | TGI (ACHN renal) | TGI (BT-549 breast) | TGI (CAKI-1 renal) | TGI (CCRF-CEM leukemia) | TGI (COLO 205 colon) | TGI (DU-145 prostate) | TGI (EKVX NSCLC) | TGI (HCC-2998 colon) | TGI (HCT-116 colon) | TGI (HCT-15 colon) | TGI (HOP-62 NSCLC) | TGI (HOP-92 NSCLC) | TGI (HS 578T breast) | TGI (HT29 colon) | TGI (IGROV1 ovarian) | TGI (K-562 leukemia) | TGI (KM12 colon) | TGI (LOX IMVI melanoma) | TGI (M14 melanoma) | TGI (MALME-3M melanoma) | TGI (MCF7 breast) | TGI (MDA-MB-231 breast) | TGI (MDA-MB-435) | TGI (MOLT-4 leukemia) | TGI (NCI-H226 lung) | TGI (NCI-H23 lung) | TGI (NCI-H460 lung) | TGI (NCI-H522 lung) | TGI (NCI/ADR-RES ovarian) | TGI (OVCAR-3 ovarian) | TGI (OVCAR-4 ovarian) | TGI (OVCAR-5 ovarian) | TGI (OVCAR-8 ovarian) | TGI (PC-3 prostate) | TGI (RPMI-8226 leukemia) | TGI (RXF 393 renal) | TGI (SF-268 CNS) | TGI (SF-295 CNS) | TGI (SF-539 CNS) | TGI (SK-MEL-2 melanoma) | TGI (SK-MEL-28 melanoma) | TGI (SK-MEL-5 melanoma) | TGI (SN12C renal) | TGI (SNB-19 CNS) | TGI (SNB-75 CNS) | TGI (SW-620 colon) | TGI (T-47D breast) | TGI (TK-10 renal) | TGI (U251 CNS) | TGI (UACC-257 melanoma) | TGI (UACC-62 melanoma) | TGI (UO-31 renal)
